Patent US4816459A, “Tetrazolyl-substituted pyrido[1,2-a]pyrimidines and use as SRS-A antagonists” (Tokyo Tanabe Co. Ltd., priority 1985, dated 1989)
Converted amounts (≈) assume the structure as drawn. Where a name gives a salt, the structure may show the parent alone.

Experiments:
leukotriene D4 = assay: Antagonistic effect on leukotriene D4 in excised guinea pig terminal ileum (in vitro, inhibition of contraction); format: cell-based, guinea pig (male, Hartley strain); conditions: Cavia porcellus, leukotriene D4 0.3 ng/ml, 50% inhibition of contraction
Method: Specifically, the terminal ileum was suspended, under aerated conditions, in 10 ml of Tyrode's solution containing 5×10^-7 M atropine and 1×10^-6 M mepyramine. Then, a test compound and leukotriene D4 (manufactured by Wako Junyaku Co., Ltd.) were successively added thereto with an interval of 30 seconds.
Specifically, at varying concentrations of each test compound, the percent inhibition of contraction was calculated from the measured degree of contraction of the ileum according to the following equation: [formula] On the basis of the data thus obtained, a dose-response curve was prepared and used to determine the IC50 value of the test compound.

[1] = tested on: leukotriene D4-induced airway constriction reaction; assay: Inhibition of leukotriene D4-induced Type I allergic reaction (airway constriction), Konzett-Rossler procedure, intravenous injection; format: in vivo, guinea pig (male, Hartley strain); conditions: Cavia porcellus, 2 min, leukotriene D4 0.5 μg/kg i.v. 2 minutes later, 50% inhibition of airway constriction, read-out: Inhibitory effect on Type I allergic reaction ID50 (intravenous)
Method: (§1) Using male guinea pigs of the Hartley strain, weighing about 400 g, in groups of six, the inhibitory effect of the present compounds [I] and physiologically acceptable salts thereof on a Type I allergic reaction induced by leukotriene D4 was tested in two dosage forms (i.e., by intravenous injection and by oral administration) according to the Konzett-Rossler procedure [Naunyn-Schmiederbergs Archiv fur Experimentelle Pathologie und Pharmakologie, Vol. 195, p. 71, 1940]. Specifically, each guinea pig was anesthetized by intraperitoneal administration of 1.5 g/kg of urethane and an incision was made in the neck to expose the trachea. To the exposed trachea was connected a respirator (with a ventilation volume of 5-7 ml, a respiration rate of 70 per minute, and a pulmonary load pressure of 10 cmH2 O; manufactured by Ugo Basile Biological Research Apparatus Co.) by way of a cannula. The volume of air overflowing through the branch of the cannula was measured by means of a Model 7020 Bronchospasm Transducer (manufactured by Ugo Basile Biological Research Apparatus Co.) and recorded with a Model RM-6000 Polygraph (manufactured by Nippon Koden Co., Ltd.).
Intravenous injection tests were carried out as follows: Each guinea pig was treated by intravenous injection of 1 mg/kg of gallamine triethiodide. Then, 20.0 to 6000.0 μg/kg of a test compound and 0.5 μg/kg of leukotriene D4 were successively administered thereto through the cervical vein with an interval of 2 minutes. The volume of air overflowing as a result of the induced airway constriction reaction was measured. The test compound was used in the form of a solution in physiological saline containing sodium hydrogen carbonate or potassium carbonate.
(§2) Both in the intravenous injection tests and in the oral administration tests, leukotriene D4 was used in the form of a solution in physiological saline.
(§3) Both in the intravenous injection tests and in the oral administration tests, the pharmacological effect on the Type I allergic reaction was evaluated in terms of the dose of the test compound at which the airway constriction reaction induced by leukotriene D4 was inhibited by 50% (hereinafter referred to as ID50), provided that ID50 was expressed in μg/kg for the intravenous injection tests and in mg/kg for the oral administration tests. […] On the basis of the data thus obtained, a dose-response curve was prepared and used to determine the ID50 value of the test compound.
(§4) Among the test compounds indicated, the compounds of Examples 1, 6 and 9 used in the intravenous injection tests were prepared according to procedure a described in the respective examples, and those used in the oral administration tests were prepared according to procedure b.

[2] = tested on: leukotriene D4-induced airway constriction reaction; assay: Inhibition of leukotriene D4-induced Type I allergic reaction (airway constriction), Konzett-Rossler procedure, oral administration; format: in vivo, guinea pig (male, Hartley strain); conditions: Cavia porcellus; oral 90 minutes before anesthesia; leukotriene D4 0.5 μg/kg i.v.; 50% inhibition of airway constriction; read-out: Inhibitory effect on Type I allergic reaction ID50 (oral)
Method: as §1
Oral administration tests were carried out as follows: 1 to 30 mg/kg of a test compound was orally administered to each guinea pig 90 minutes before anesthesia with urethane. Then, the anesthetized guinea pig was treated by intravenous injection of 1 mg/kg of gallamine triethiodide and administration of 0.5 μg/kg of leukotriene D4 through the cervical vein. The volume of air overflowing as a result of the induced airway constriction reaction was measured.
as §2, §3, §4

[3] = Acute toxicity (LD50) in mice; conditions: mouse, in vivo, 5-weeks-old male ddY strain mice
Method: (§5) The acute toxicity (LD50) of several typical examples of the present compounds [I] and physiologically acceptable salts thereof was tested on 5-weeks-old male ddY strain mice and male SD strain rats. For this purpose, the compounds of Examples 1, 6 and 9 were selected as typical examples. […] For rats, their LD50 values were not less than 4.0 g/kg when administered orally, and not less than 200 mg/kg when administered intravenously.

[4] = Acute toxicity (LD50) in rats; conditions: rat, in vivo, male SD strain rats
Method: as §5

[5] = tested on: SRS-A as represented by leukotriene D4; assay: Confirmatory experiment: antagonistic effect on SRS-A as represented by leukotriene D4; conditions: confirmatory experiment by the inventors
SRS-A = conditions: Japanese Journal of Allergology 1984; cited from earlier work
[6] = intravenous, read-out: LD50, intravenous, mice
[7] = oral, read-out: LD50, oral, mice
[8] = intravenous, read-out: LD50, intravenous, rats
[9] = oral, read-out: LD50, oral, rats

IC50 (leukotriene D4) | Structure (SMILES) | ED50 [1] | ED50 [2] | LD50 [3, 6] | LD50 [3, 7] | LD50 [4, 8] | LD50 [4, 9] | antagonistic effect on SRS-A as represented by leukotriene D4 (in words) [5] | type of SRS-A drug (in words) (SRS-A)
0.8 µg/mL (≈ 1.84 µM) | CCCc1c(OCc2cc(C)cn3c(=O)c(-c4nnn[nH]4)cnc23)ccc(C(C)=O)c1O [Example 5, 9-[(4-acetyl-3-hydroxy-2-n-propylphenoxy)methyl]-7-methyl-3-(1H-tetrazol-5-yl)-4H-pyrido[1,2-a]pyrimidin-4-one] |  |  |  |  |  |  |  | 
0.6 µg/mL (≈ 1.34 µM) | CCCc1c(OCc2ccn3c(=O)c(CCc4nnn[nH]4)cnc3c2)ccc(C(C)=O)c1O [Example 10, 8-[(4-acetyl-3-hydroxy-2-n-propylphenoxy)methyl]-3-[2-(1H-tetrazol-5-yl)ethyl]-4H-pyrido[1,2-a]pyrimidin-4-one] |  |  |  |  |  |  |  | 
0.03 µg/mL | CCCc1c(OCc2cccn3c(=O)c(-c4nn[nH]n4)cnc23)ccc(C(C)=O)c1O [Example 12, 9-[(4-acetyl-3-hydroxy-2-n-propylphenoxy)methyl]-3-(1H-tetrazol-5-yl)-4H-pyrido[1,2-a]pyrimidin-4-one potassium salt] | 0.097 mg/kg | 10 mg/kg |  |  |  |  |  | 
1 µg/mL (≈ 2 µM) | CCCc1c(OCc2cc(Br)cn3c(=O)c(-c4nnn[nH]4)cnc23)ccc(C(C)=O)c1O [Example 4, 9-[(4-acetyl-3-hydroxy-2-n-propylphenoxy)methyl]-7-bromo-3-(1H-tetrazol-5-yl)-4H-pyrido[1,2-a]pyrimidin-4-one] | 4.9 mg/kg |  |  |  |  |  |  | 
0.1 µg/mL (≈ 0.23 µM) | CCCc1c(OCc2ccc3ncc(Cc4nnn[nH]4)c(=O)n3c2)ccc(C(C)=O)c1O [Example 7, 7-[(4-acetyl-3-hydroxy-2-n-propylphenoxy)methyl]-3-[(1H-tetrazol-5-yl)methyl]-4H-pyrido[1,2-a]pyrimidin-4-one] |  |  |  |  |  |  |  | 
0.9 µg/mL (≈ 1.71 µM) | CCCc1c(OCc2cc(Br)cn3c(=O)c(CCc4nnn[nH]4)cnc23)ccc(C(C)=O)c1O [Example 11, 9-[(4-acetyl-3-hydroxy-2-n-propylphenoxy)methyl]-7-bromo-3-[2-(1H-tetrazol-5yl)ethyl]-4H-pyrido[1,2-a]pyrimidin-4-one] | 2.9 mg/kg |  |  |  |  |  |  | 
200 µg/mL | Cc1cccn2c(=O)c(-c3nnn[nH]3)cnc12.[K] [Compound TBX, 9-Methyl-3-(1H-tetrazol-5-yl)-4H-pyrido[1,2-a]pyrimidin-4-one potassium salt, reference compound] | ≥ 10 mg/kg |  |  |  |  |  | no antagonistic effect | belongs to the SRS-A release suppression type
0.7 µg/mL (≈ 1.56 µM) | CCCc1c(OCc2cc(C)cn3c(=O)c(Cc4nnn[nH]4)cnc23)ccc(C(C)=O)c1O [Example 8, 9-[(4-acetyl-3-hydroxy-2-n-propylphenoxy)methyl]-7-methyl-3-[(1H-tetrazol-5-yl)methyl]-4H-pyrido[1,2-a]pyrimidin-4-one] | 1.9 mg/kg |  |  |  |  |  |  | 
0.2 µg/mL (≈ 0.476 µM) | CCCc1c(OCc2ccn3c(=O)c(-c4nnn[nH]4)cnc3c2)ccc(C(C)=O)c1O [Example 3, 8-[(4-acetyl-3-hydroxy-2-n-propylphenoxy)methyl]-3-(1H-tetrazol-5-yl)-4H-pyrido[1,2-a]pyrimidin-4-one] | 0.17 mg/kg |  |  |  |  |  |  | 
0.1 µg/mL (≈ 0.238 µM) | CCCc1c(OCc2ccc3ncc(-c4nnn[nH]4)c(=O)n3c2)ccc(C(C)=O)c1O [Example 2, 7-[(4-acetyl-3-hydroxy-2-n-propylphenoxy)methyl]-3-(1H-tetrazol-5-yl)-4H-pyrido[1,2-a]pyrimidin-4-one] | 0.16 mg/kg |  |  |  |  |  |  | 

Structure (SMILES) | IC50 (leukotriene D4) | ED50 [1] | ED50 [2] | LD50 [3, 6] | LD50 [3, 7] | LD50 [4, 8] | LD50 [4, 9] | antagonistic effect on SRS-A as represented by leukotriene D4 (in words) [5] | type of SRS-A drug (in words) (SRS-A)
CCCc1c(OCc2cccn3c(=O)c(CCc4nnn[nH]4)cnc23)ccc(C(C)=O)c1O [Example 9, 9-[(4-acetyl-3-hydroxy-2-n-propylphenoxy)methyl]-3-[2-(1H-tetrazol-5-yl)ethyl]-4H-pyrido[1,2-a]pyrimidin-4-one] | 0.005 µg/mL (≈ 0.0111 µM) | 0.038 mg/kg | 5 mg/kg | ≥ 100 mg/kg | ≥ 4000 mg/kg | ≥ 200 mg/kg | ≥ 4000 mg/kg |  | 
CCCc1c(OCc2cccn3c(=O)c(Cc4nnn[nH]4)cnc23)ccc(C(C)=O)c1O [Example 6, 9-[(4-acetyl-3-hydroxy-2-n-propylphenoxy)methyl]-3-[(1H-tetrazol-5-yl)methyl]-4H-pyrido[1,2-a]pyrimidin-4-one] | 0.01 µg/mL (≈ 0.023 µM) | 0.11 mg/kg | 10 mg/kg | ≥ 100 mg/kg | ≥ 4000 mg/kg | ≥ 200 mg/kg | ≥ 4000 mg/kg |  | 
CCCc1c(OCc2cccn3c(=O)c(-c4nnn[nH]4)cnc23)ccc(C(C)=O)c1O [Example 1, 9-[(4-acetyl-3-hydroxy-2-n-propylphenoxy)methyl]-3-(1H-tetrazol-5-yl)-4H-pyrido[1,2-a]-pyrimidin-4-one] | 0.03 µg/mL (≈ 0.0714 µM) | 0.097 mg/kg | 9 mg/kg | ≥ 100 mg/kg | ≥ 4000 mg/kg | ≥ 200 mg/kg | ≥ 4000 mg/kg |  | 
